Test results: ChEMBL document CHEMBL3425445, “Synthesis, crystal structure and biological evaluation of substituted quinazolinone benzoates as novel antituberculosis agents targeting acetohydroxyacid synthase” (Eur J Med Chem, 2015)
≈ marks a conversion by molar mass, not a printed value.

Legend:
[1] = system: Mycobacterium tuberculosis; assay: Inhibition of Mycobacterium tuberculosis AHAS catalytic subunit assessed as inhibition of acetoin formation using […] as substrate at 100 uM after 1 hr
[2] = system: Mycobacterium tuberculosis; assay: Antitubercular activity against Mycobacterium tuberculosis H37Rv ATCC 27294 assessed as inhibition of bacterial growth after 4 weeks by two-fold dilution technique; format: functional; settings: H37Rv ATCC 27294, 672 h
[3] = Inhibition of Mycobacterium tuberculosis AHAS catalytic subunit assessed as inhibition of acetoin formation using […] as substrate after 1 hr
[4] = system: Mycobacterium tuberculosis; assay: Antitubercular activity against isoniazid, rifampin, streptomycin, ethambutol, amikacin, ofloxacin, kanamycin-susceptible Mycobacterium tuberculosis assessed as inhibition of bacterial growth after 4 weeks by two-fold dilution technique; format: functional; settings: 672 h
[5] = system: Mycobacterium tuberculosis; assay: Antitubercular activity against isoniazid, rifampin, streptomycin, ethambutol, amikacin, ofloxacin, kanamycin-susceptible Mycobacterium tuberculosis infected in human THP-1 cells assessed as inhibition of intracellular activity at 20 mg/L after 4 days; format: functional; settings: THP-1, 96 h
[6] = system: Mycobacterium tuberculosis; assay: Antitubercular activity against Mycobacterium tuberculosis H37Rv ATCC 27294 infected in human THP-1 cells assessed as inhibition of intracellular activity at 10 mg/L after 4 days; format: functional; settings: H37Rv ATCC 27294, THP-1, 96 h
[7] = system: Mycobacterium tuberculosis; assay: Antitubercular activity against Mycobacterium tuberculosis H37Rv ATCC 27294 infected in human THP-1 cells assessed as inhibition of intracellular activity at 20 mg/L after 4 days; format: functional; settings: H37Rv ATCC 27294, THP-1, 96 h
THP-1 = assay: Cytotoxicity against human THP1 cells at 20 mg/L by MTT assay; format: cell-based
[8] = system: Mycobacterium tuberculosis; assay: Antitubercular activity against isoniazid, rifampin, streptomycin, ethambutol, amikacin, ofloxacin, kanamycin-susceptible Mycobacterium tuberculosis infected in human THP-1 cells assessed as inhibition of intracellular activity at 10 mg/L after 4 days; format: functional; settings: THP-1, 96 h

Row | Structure (SMILES) | inhibition [1] [%] | MIC [2] [µg/mL] | IC50 [3] [µM] | MIC [4] [µg/mL] | inhibition at 20 µg/mL [5] [%] | inhibition at 10 µg/mL [6] [%] | inhibition at 20 µg/mL [7] [%] | Activity (THP-1) | inhibition at 10 µg/mL [8] [%]
1 | Cc1cccc(-c2nc3ccccc3c(=O)n2OC(=O)c2cccc(C(F)(F)F)c2)c1 | 9.5 | > 50 | > 100 |  |  |  |  |  | 
2 | COc1cccc(-c2nc3ccccc3c(=O)n2OC(=O)c2cccc(C(F)(F)F)c2)c1 | 73.2 | 10 (≈ 22.7 µM) | 9.57 | 10 (≈ 22.7 µM) |  |  |  |  | 
3 | COc1cccc(-c2nc3ccccc3c(=O)n2OC(=O)c2cccc(Cl)c2)c1 | 23.5 | > 50 | > 100 |  |  |  |  |  | 
4 | CO[C@H]1/C=C/O[C@@]2(C)Oc3c(C)c(O)c4c(O)c(c(/C=N/N5CCN(C)CC5)c(O)c4c3C2=O)NC(=O)/C(C)=C\C=C\[C@H](C)[C@H](O)[C@@H](C)[C@@H](O)[C@@H](C)[C@H](OC(C)=O)[C@@H]1C [RIFAMPIN] |  |  |  | 0.4 (≈ 0.486 µM) |  |  |  |  | 
5 | O=C(On1c(-c2ccccc2)nc2ccccc2c1=O)c1cccc(F)c1 | 26 | > 50 | > 100 |  |  |  |  |  | 
6 | COc1cccc(C(=O)On2c(-c3ccccc3)nc3ccccc3c2=O)c1 | 27 | > 50 | > 100 |  |  |  |  |  | 
7 | COc1cccc(C(=O)On2c(-c3cccc(F)c3)nc3ccccc3c2=O)c1 | 28 | 50 (≈ 128 µM) | > 100 |  |  |  |  |  | 
8 | O=C(On1c(-c2cccc(F)c2)nc2ccccc2c1=O)c1cccc(F)c1 | 72 | 2.5 (≈ 6.61 µM) | 6.5 | 2.5 (≈ 6.61 µM) | 48.2 | 24.8 | 49.5 | Non-toxic | 23.4
9 | Cc1ccc(C(=O)On2c(-c3cccc(C)c3)nc3ccccc3c2=O)cc1 | 33 | > 50 | > 100 |  |  |  |  |  | 
10 | Cc1ccc(C(=O)On2c(-c3ccccc3)nc3ccccc3c2=O)cc1 | 18 | > 50 | > 100 |  |  |  |  |  | 
11 | O=C(On1c(-c2cccc(F)c2)nc2ccccc2c1=O)c1ccccc1 | 26 | 50 (≈ 139 µM) | > 100 |  |  |  |  |  | 
12 | Cc1cccc(-c2nc3ccccc3c(=O)n2OC(=O)c2ccccc2)c1 | 40.5 | > 50 | > 100 |  |  |  |  |  | 
13 | COc1cccc(-c2nc3ccccc3c(=O)n2OC(=O)c2cccc([N+](=O)[O-])c2)c1 | 94 | 5 (≈ 12 µM) | 8.74 | 5 (≈ 12 µM) |  |  |  |  | 
14 | COC(=O)c1ccccc1S(=O)(=O)NC(=O)Nc1nc(C)cc(C)n1 [SULFOMETURON METHYL] |  | 10 (≈ 27.4 µM) | 4.79 | 10 (≈ 27.4 µM) | 32.3 | 15.9 | 32.5 |  | 15.5
15 | Cc1ccccc1C(=O)On1c(-c2ccccc2)nc2ccccc2c1=O | 16.5 | > 50 | > 100 |  |  |  |  |  | 
16 | O=C(On1c(-c2cccc(F)c2)nc2ccccc2c1=O)c1cccc(C(F)(F)F)c1 | 30 | > 50 | > 100 |  |  |  |  |  | 
17 | Cc1cccc(C(=O)On2c(-c3cccc(C)c3)nc3ccccc3c2=O)c1 | 10.5 | > 50 | > 100 |  |  |  |  |  | 
18 | O=C(On1c(-c2ccccc2)nc2ccccc2c1=O)c1ccccc1 | 20.5 | > 50 | > 100 |  |  |  |  |  | 
19 | Cc1cccc(C(=O)On2c(-c3ccccc3)nc3ccccc3c2=O)c1 | 4 | > 50 | > 100 |  |  |  |  |  | 
20 | NNC(=O)c1ccncc1 [ISONIAZID] |  |  |  | 0.2 (≈ 1.46 µM) |  |  |  |  | 
21 | O=C(On1c(-c2ccccc2)nc2ccccc2c1=O)c1cccc(Cl)c1 | 80.5 | 5 (≈ 13.3 µM) | 12.1 | 5 (≈ 13.3 µM) |  |  |  |  | 
22 | Cc1cccc(-c2nc3ccccc3c(=O)n2OC(=O)c2ccc(Cl)cc2)c1 | 0 | > 50 | > 100 |  |  |  |  |  | 
23 | O=C(On1c(-c2ccccc2)nc2ccccc2c1=O)c1cccc([N+](=O)[O-])c1 | 91.5 | 5 (≈ 12.9 µM) | 9.68 | 5 (≈ 12.9 µM) |  |  |  |  | 
24 | O=C(On1c(-c2cccc(F)c2)nc2ccccc2c1=O)c1cccc(Cl)c1 | 42.5 | > 50 | > 100 |  |  |  |  |  | 
25 | Cc1cccc(-c2nc3ccccc3c(=O)n2OC(=O)c2cccc(F)c2)c1 | 9.5 | > 50 | > 100 |  |  |  |  |  | 
26 | O=C(On1c(-c2ccccc2)nc2ccccc2c1=O)c1ccc(Cl)cc1 | 7.5 | > 50 | > 100 |  |  |  |  |  | 
27 | Cc1ccccc1-c1nc2ccccc2c(=O)n1OC(=O)c1cccc(F)c1 | 30 | > 50 | > 100 |  |  |  |  |  | 
